The text below walks through data of US20040213766A1, “Compositions and methods for treating transplants” (priority 2002, published 2004).

In one assay the test system is severed limbs. The assay can be described thus: Limb replantation after perfusion of amputated hind legs. It is filed as in vivo. The note with it: rat hind leg replantation, perfusion every 3 hours. As to the method: Hind legs were amputated from rats, and the major feed arteries for the severed limbs were cannulated for infusion of A-FUV, loaded in a 1 mM ATP solution. The limbs were perfused with A-FUV or control solutions (see Table 1) every 3 hours, or as deemed necessary by the change in tissue ATP levels. The arterial pressure of the limbs were monitored during infusion to decrease the chance of flow-induced injury, and to monitor the overall preservation of the severed limbs (higher perfusion pressures may indicate limb morbidity). Following the preservation period, the limbs were flushed with Ringers to remove traces of A-FUV. The limbs were then surgically reattached, and external indices of limb function after anastomoses were evaluated (limb color, evidence of microthrombi, coagulation, limb temperature). The animals prior to and following replantation received heparin to prevent hemostasis. In addition, animals were placed on antibiotic therapy to reduce infection. Control limbs were perfused with vehicle only, vehicle and ATP only, or vehicle and FUVs only.

Another assay has as its system HUVEC. The assay can be described thus: 3H-ATP tracer incorporation into HUVEC and repeated washes. The format is cell-based, human. To be noted: cells washed repeatedly.

Experimental for HUVEC: To confirm the carboxyfluorescein studies, ^3H-ATP was used as a tracer instead of the fluor. Vesicles were incubated with HUVEC for either 5, 10, 15, 30, 45, 60, 90, 120, or 240 minutes.

In the case of `Nc1ncnc2c1ncn2[C@@H]1O[C@H](COP(=O)(O)OP(=O)(O)OP(=O)(O)O)[C@@H](O)[C@H]1O` [ATP], the Limb outcome in the assay with severed limbs is recorded as “necrosis”.
For the molecule `Nc1ncnc2c1ncn2[C@@H]1O[C@H](COP(=O)(O)OP(=O)(O)OP(=O)(O)O)[C@@H](O)[C@H]1O` [free ^3H-ATP, ^3H-ATP], the “radioactivity of the cells after repeated washes” value in the assay on HUVEC is given as “complete loss of radioactivity”.
